# Source: US7557211B2, “8H-imidazo[4,5-D]thiazolo[4,5-B]pyridine based tricyclic compounds and pharmaceutical compositions comprising same” (Bristol-Myers Squibb Company, priority 2004, dated 2009)
# System: T98
# Assay: Ames testing
# Format: cell-based
# Details: T98 with S9 activation
# Description: A60.7 (370 mg) was dissolved in trifluoroacetic acid and stirred at 50° C. for 2h and 45 min. then at 60° C. for 2 h, then overnight at room temperature. The solvent was removed under reduced pressure and co-evaporated with diethyl ether (2×). Ether (˜20 mL) was added and the mixture sonicated for 1 min. The crude product was collected by filtration and rinsed with an additional portion of ether and dried under vacuum to yield 130 mg of a pale yellow solid. The crude product was washed with several portions of saturated aqueous sodium bicarbonate then water and dried under vacuum. The crude product was purified by automated reverse phase HPLC. The appropriate fractions were combined and azeotroped with heptane to produce 43 mg of a pale yellow solid. The solid was treated with a few milliliters of saturated aqueous sodium bicarbonate solution rinsed with water and dried under vacuum over phosphorus pentoxide and subsequently rinsed with several portions of diethyl ether and dried to yield 36 mg of the desired product. (Caution: This material was subjected to Ames testing and found to be positive in T98 with S9 activation. Suitable precautions should be taken in handling this material) 1H NMR 400 MHz d^6DMSO δ: 8.26 s, 1H, 8.14-8.07 m, 2H, 7.62-7.53, m, 3H, 6.90-6.80, br s, 2H, 4.02, s, 3H.
smiles,measurement,value
"Cn1cnc2c(N)nc3nc(-c4ccccc4)sc3c21 [Example A60, 8-methyl-2-phenyl-8H-imidazo[4,5-d]thiazolo[4,5-b]pyridin-5-amine]",Ames testing,positive
